The values below come from article PMC8960621, “Solution speciation and human serum protein binding of indium(III) complexes of 8-hydroxyquinoline, deferiprone and maltol” (Journal of Biological Inorganic Chemistry, 2022).

In one assay the target is T1, apo-transferrin (apoTf) (Homo sapiens, UniProt P02787).
T1 construct: purchased Sigma-Aldrich T2036
In words: Kinetics of the reaction with apoTf followed by UV-vis spectrophotometry. The format is binding. Conditions: pH 7.40 (InCl3: 2 equiv.). As for the experimental part: Firstly, the kinetics of the reaction between apoTf and InCl3 and the complexes was studied by UV–vis spectrophotometry. The reaction of 2 equiv. […] At the same time Harris et al. have observed slow equilibration with InCl3, that was accelerated (to 6 h) in the presence of NTA [18]. In the case of InQ3 and InD3, the progress of apoTf binding could be followed through the ligand bands of the complexes. […] The Ga(III)-analogue GaQ3 interacted within 1 h with apoTf under similar conditions.
For (apo)Tf containing samples, complex concentrations were 20 μM and 0–2.5 equiv. protein was added. Reference spectra for the complexes, ligands and protein were recorded as well. Samples prepared with blood serum contained three-fold diluted serum and 10 μM metal complexes. UV–vis spectra presented in this paper for complexes InD3 or InQ3 are subtracted by the spectrum of reference protein (HSA (apo)Tf or serum) sample in all cases in favour of the better interpretation of the results.

The target of a further assay is T2, apoTf (Homo sapiens, UniProt P02787).
T2 construct: purchased Sigma-Aldrich T2036
Nature of the assay: Interaction with (apo)Tf: ligand displacement and binding of the intact complex (UV-vis, fluorescence, ultrafiltration). The settings on record: pH 7.40. As for the experimental part:
Therefore, UV–vis and fluorescence emission spectra of InQ3 were recorded in the presence of increasing amounts of apoTf (Fig. 5a, b). After a short initial phase, the absorbance band of InQ3 is reduced gradually by the addition of the protein, while the development of the new band at lower wavelengths (at ca. 310 nm) refers to the liberation of HQ. Namely, there is a competition for In(III) ion between the ligand and the iron-binding sites of apoTf. Absorbance values depicted at 370 nm and 310 nm (Fig. 5c) saturate roughly to the corresponding values of the free ligand and outline a sigmoidal shape. Fluorescence intensity of the same sample set (Fig. 5b, d) was enhanced and moderately blue shifted (from λmax = 540 nm to 532 nm) until the addition of ca. 0.2 equiv. apoTf. […] Then, by the addition of more apoTf, intensities decreased and λmax shifted further to shorter wavelengths (527 nm). […] Based on this and the results of apoTf quenching (vide supra) protein binding of the non-dissociated complex is presumed. This is further supported by fluorescence lifetime measurements; where new lifetime components τ3 = 4.7 ± 0.2 ns and τ4 = 13.8 ± 0.4 ns appeared for InQ3 in the presence of 0.1 – 0.3 equiv. apoTf (after 1 min waiting time). […] Here, the sigmoid shape of the UV–vis absorbance was seen again (Fig. S5) and the shifted inflection point in comparison to the titration with apoTf underlines the lower In(III) binding capacity of Tf. […]
In the case of InD3, the absorbance bands of the metal complex and apoTf overlap in great extent, however, spectra can be deconvoluted to the spectra of InD3, deferiprone and apoTf (see Fig S6 for details), and molar fractions of the respective species can be calculated (Fig. 6). Ultrafiltration experiments were carried out as well for the InD3 – apoTf system and the non-protein bound LMM fractions were analyzed by UV–vis spectrophotometry (Fig. 6). […] The complex dissociated in line with the addition of apoTf and a practically quantitative displacement of deferiprone seems to take place by the addition of ca. 0.5 equiv. apoTf. […]

T1 sequence (P02787 20-698): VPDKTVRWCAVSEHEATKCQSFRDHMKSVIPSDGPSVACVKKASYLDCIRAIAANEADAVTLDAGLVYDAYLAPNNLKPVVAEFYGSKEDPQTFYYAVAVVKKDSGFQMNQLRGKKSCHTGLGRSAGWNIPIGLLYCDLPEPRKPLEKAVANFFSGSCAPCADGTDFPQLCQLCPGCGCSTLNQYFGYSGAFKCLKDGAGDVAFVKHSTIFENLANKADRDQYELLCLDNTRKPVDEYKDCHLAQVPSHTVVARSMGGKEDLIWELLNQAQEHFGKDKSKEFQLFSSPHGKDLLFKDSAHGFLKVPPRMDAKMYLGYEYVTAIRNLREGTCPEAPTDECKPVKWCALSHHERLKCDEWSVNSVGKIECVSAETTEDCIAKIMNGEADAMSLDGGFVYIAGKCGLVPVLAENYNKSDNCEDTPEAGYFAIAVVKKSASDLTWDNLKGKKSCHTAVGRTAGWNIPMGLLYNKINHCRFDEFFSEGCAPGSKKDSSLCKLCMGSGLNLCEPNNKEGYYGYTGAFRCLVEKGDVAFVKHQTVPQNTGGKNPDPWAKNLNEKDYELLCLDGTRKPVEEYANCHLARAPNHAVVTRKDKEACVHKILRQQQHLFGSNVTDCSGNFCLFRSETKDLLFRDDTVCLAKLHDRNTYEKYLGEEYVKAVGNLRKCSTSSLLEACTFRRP
T2 sequence (P02787 20-698): as above

For `[In+3].[O-]c1cccc2cccnc12.[O-]c1cccc2cccnc12.[O-]c1cccc2cccnc12` [InQ3, Tris(8-Quinolinolato)indium(III)], the “time to reach equilibrium in the reaction with apoTf” value on apo-transferrin (apoTf) is 3 to 4 h.

As for `Cc1c([O-])c(=O)ccn1C.Cc1c([O-])c(=O)ccn1C.Cc1c([O-])c(=O)ccn1C.[In+3]` [InD3], the “apoTf needed for practically quantitative displacement of the ligand” value at apoTf (UV–vis deconvolution and ultrafiltration) was “ca. 0.5 equiv”. In addition, the “time to reach equilibrium in the reaction with apoTf” value at apo-transferrin (apoTf) is reported as roughly 0.5 h.

In the case of `[Ga+3].[O-]c1cccc2cccnc12.[O-]c1cccc2cccnc12.[O-]c1cccc2cccnc12` [GaQ3, Tris(8-Quinolinolato)gallium(III), reference compound], on apoTf (UV–vis and fluorescence), the “binding via intermolecular interactions to apoTf (and Tf)” value is “no such binding was observed”.
